Earlier results in US20230022060A1, “TURKESTERONE HYDROXYPROPYL B-CYCLIC DEXTRIN COMPLEX AND METHOD OF MANUFACTURING THEREOF” (Gorilla Mind, LLC, priority 2021, published 2023).

Assays:
[1] = test system: Staphylococcus aureus, Bacillus subtilis and Escherichia coli; settings: three bacteria
[2] = 100 mL water at 25° C.

For `O=C(/C=C/c1ccc(O)c(O)c1)O[C@@H]1C[C@](O)(C(=O)O)C[C@@H](O)[C@H]1O` [chlorogenic acid], the “difference of antimicrobial activity between chlorogenic acid and its complex” value [1] is listed as “No significant difference”.

In the case of `OC[C@H]1O[C@@H]2O[C@H]3[C@H](O)[C@@H](O)[C@@H](O[C@H]4[C@H](O)[C@@H](O)[C@@H](O[C@H]5[C@H](O)[C@@H](O)[C@@H](O[C@H]6[C@H](O)[C@@H](O)[C@@H](O[C@H]7[C@H](O)[C@@H](O)[C@@H](O[C@H]1[C@H](O)[C@H]2O)O[C@@H]7CO)O[C@@H]6CO)O[C@@H]5CO)O[C@@H]4CO)O[C@@H]3CO` [α-cyclodextrin], the “amount that can be dissolved in water” value [2] is given as “About 14 g in 100 mL water”.
